Test: Oral absorption test: concentration of hydrolyzed carbapenem compound (A) in plasma after oral administration
Format: in vivo
Details: mice, 100 mg/kg orally, hydrolyzed carbapenem compound (A) by HPLC
Method: The compound of the present invention (100 mg/kg, compound of Example 13) was orally administered to mice (3 per group) and the concentration of hydrolyzed carbapenem compound (A) in plasma was determined at 0.25, 0.5, 1.0, 2.0 and 3.0 hours later by HPLC.
The compound of the present invention (100 mg/kg, compound of Example 15) was orally administered to mice (3 per group) and the concentration of hydrolyzed carbapenem compound (A) in plasma was determined at 0.25, 0.5, 1.0, 2.0 and 3.0 hours later by HPLC.

| Compound | Average concentration in plasma (0.25 hr) [µg/mL] | Average concentration in plasma (0.5 hr) [µg/mL] | Average concentration in plasma (1.0 hr) [µg/mL] | Average concentration in plasma (2.0 hr) [µg/mL] | Average concentration in plasma (3.0 hr) [µg/mL] |
| --- | --- | --- | --- | --- | --- |
| CC(C)C(=O)OCOC(=O)N1C[C@@H](SC2=C(C(=O)OCOC(=O)C(C)(C)C)N3C(=O)[C@H]([C@@H](C)O)[C@H]3[C@H]2C)C[C@H]1C(=O)N(C)C [Example 15, pivaloyloxymethyl (1R,5S,6S)-2-[(3S,5S)-(5-N,N-dimethylaminocarbonyl-1-isobutyryloxymethyloxycarbonyl)pyrrolidin-3-ylthio]-6-[(1R)-1-hydroxyethyl]-1-methylcarbapen-2-em-3-carboxylate] | 8.6 | 10.1 | 4.8 | 1.4 | 0.3 |
| CCC(=O)OCOC(=O)N1C[C@@H](SC2=C(C(=O)OCOC(=O)C(C)(C)C)N3C(=O)[C@H]([C@@H](C)O)[C@H]3[C@H]2C)C[C@H]1C(=O)N(C)C [Example 13] | 9.5 | 4.8 | 1.9 | 0.6 | 0.2 |

— patent US6410525B1, “Carbapenem derivatives, utilization thereof and intermediate compounds of the same” (Kyoto Pharmaceutical Industries, Ltd., priority 1998, dated 2002)
